In US20260265195A1, “SARM1 MODULATORS, PREPARATIONS, AND USES THEREOF” (SIRONAX LTD, priority 2022, published 2026):

Biological target: T1, SARM1 (50-724) (Homo sapiens, UniProt Q6SZW1)
T1 construct: Purified SARM1 (50-724) with a final concentration of 2 nM
T1 sequence (Q6SZW1 50-724): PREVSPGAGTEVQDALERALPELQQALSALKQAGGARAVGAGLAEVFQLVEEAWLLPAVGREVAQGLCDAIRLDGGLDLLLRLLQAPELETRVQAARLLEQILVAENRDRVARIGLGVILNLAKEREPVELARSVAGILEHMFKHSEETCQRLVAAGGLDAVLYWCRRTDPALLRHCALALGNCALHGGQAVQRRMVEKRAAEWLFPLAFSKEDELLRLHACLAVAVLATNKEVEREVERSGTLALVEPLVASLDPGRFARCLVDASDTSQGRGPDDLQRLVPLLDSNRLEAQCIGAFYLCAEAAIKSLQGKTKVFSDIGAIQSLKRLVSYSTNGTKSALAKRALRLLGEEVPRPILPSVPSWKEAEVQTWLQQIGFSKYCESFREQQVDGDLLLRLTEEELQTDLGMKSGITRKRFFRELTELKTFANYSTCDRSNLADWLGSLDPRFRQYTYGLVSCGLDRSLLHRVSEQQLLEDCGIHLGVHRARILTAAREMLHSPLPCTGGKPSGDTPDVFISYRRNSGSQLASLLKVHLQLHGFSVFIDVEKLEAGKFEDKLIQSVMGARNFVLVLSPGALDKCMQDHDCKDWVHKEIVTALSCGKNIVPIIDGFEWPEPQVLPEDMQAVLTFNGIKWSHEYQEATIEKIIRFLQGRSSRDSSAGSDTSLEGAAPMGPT
Experiment: SARM1 (50-724) enzymatic assay (NMN-activated NAD+ hydrolysis, LC-MS/MS readout)
Format: biochemical
Conditions: purified SARM1 (50-724) 2 nM, 200 μM NMN activator, 100 μM NAD+ substrate, 1 h at room temperature, read-out: IC50 (SARM1 inhibitory activity)
Experimental: Example II. SARM1 (50-724) Enzymatic Assay
An enzymatic assay was performed in a 384-well plate using Dulbecco's phosphate-buffered saline (PBS) as the reaction buffer. Purified SARM1 (50-724) with a final concentration of 2 nM was pre-incubated with a test compound at 1% DMSO final assay concentration for 15 min at room temperature. The reaction was initiated by adding a mixture of 200 μM nicotinamide mononucleotide (NMN) as activator and 100 μM NAD^+ as substrate. After 1 h of incubation at room temperature, the reaction was terminated with 10 times volume of 70% acetonitrile, then centrifuged at 3800 rpm for 10 min. The samples were analyzed using LC-MS/MS after diluted to a proper concentration by 10 mM ammonium acetate (pH 9.75).
ND means “not determined.”

Structure (SMILES) | IC50 [nM]
O=C(c1nc2cc(C(F)(F)F)ccc2[nH]1)N(CCO)[C@@H]1CCCC[C@H]1OC(F)(F)F (racemic) [Compound 60, N-(2-hydroxyethyl)-N-((1R,2R)-2-(trifluoromethoxy)cyclohexyl)-5-(trifluoromethyl)-1H-benzo[d]imidazole-2-carboxamide] | 101 to 500
O=C(c1nc2cc(C(F)(F)F)ccc2[nH]1)N(CC(O)CO)c1cccc(Cl)c1Cl (racemic) [Compound 131, N-(2,3-dichlorophenyl)-N-(2,3-dihydroxypropyl)-5-(trifluoromethyl)-1H-benzo[d]imidazole-2-carboxamide] | ≤ 100
O=C(c1nc2cc(C(O)C3CC3)ccc2[nH]1)N(CCO)c1cccc(Cl)c1Cl (racemic) [Compound 162] | ≥ 1000
CC1(C)OCC(CN(C(=O)c2nc3cc(C(F)(F)F)ccc3[nH]2)c2cccc(Cl)c2Cl)O1 (racemic) [Compound 173, N-(2,3-dichlorophenyl)-N-((2,2-dimethyl-1,3-dioxolan-4-yl)methyl)-5-(trifluoromethyl)-1H-benzo[d]imidazole-2-carboxamide] | ≤ 100
CC(c1cn[nH]c1)c1ccc2[nH]c(C(=O)N(CCO)c3cccc(Cl)c3Cl)nc2c1 (racemic) [Compound 189] | ≤ 100
O=C(c1nc2cc(Cl)cc(F)c2[nH]1)N(c1cccc(F)c1Cl)C1CCS(=O)(=O)C1 (racemic) [Compound 191] | ≤ 100
O=C(c1nc2cc(C(F)(F)F)cc(F)c2[nH]1)N(c1cccc(F)c1Cl)C1CCS(=O)(=O)C1 (racemic) [Compound 192] | ≤ 100
O=C(c1nc2cc(C3CCCO3)ccc2[nH]1)N(CCO)c1cccc(Cl)c1Cl (racemic) [Compound 196] | ≤ 100
O=C(c1nc2cc(C(F)(F)F)ccc2[nH]1)N(c1cccc(F)c1Cl)C1CCS(=O)(=O)C1 (racemic) [Compound 228, N-(2-chloro-3-fluorophenyl)-N-(1,1-dioxidotetrahydrothiophen-3-yl)-5-(trifluoromethyl)-1H-benzo[d]imidazole-2-carboxamide] | ≤ 100
C[S+]([O-])CCCN(C(=O)c1nc2cc(C(F)(F)F)ccc2[nH]1)c1cccc(F)c1Cl (racemic) [Compound 230, N-(2-chloro-3-fluorophenyl)-N-(3-(methylsulfinyl)propyl)-5-(trifluoromethyl)-1H-benzo[d]imidazole-2-carboxamide] | ≤ 100
O=C1NC(CN(C(=O)c2nc3cc(C(F)(F)F)ccc3[nH]2)c2cccc(F)c2Cl)CO1 (racemic) [Compound 238, N-(2-chloro-3-fluorophenyl)-N-((2-oxooxazolidin-4-yl)methyl)-5-(trifluoromethyl)-1H-benzo[d]imidazole-2-carboxamide] | ≤ 100
CN1CCC(N(C(=O)c2nc3cc(C(F)(F)F)ccc3[nH]2)c2cccc(F)c2Cl)C1=O (racemic) [Compound 240, N-(2-chloro-3-fluorophenyl)-N-(1-methyl-2-oxopyrrolidin-3-yl)-5-(trifluoromethyl)-1H-benzo[d]imidazole-2-carboxamide] | ≤ 100
Cc1ccc2[nH]c(C(=O)N(C)c3cccc(Cl)c3Cl)c(CO)c2c1 [Compound 1, N-(2,3-dichlorophenyl)-3-(hydroxymethyl)-N,5-dimethyl-1H-indole-2-carboxamide] | ≤ 100
Cc1ccc2[nH]c(C(=O)N(C)c3c(F)cccc3F)c(CO)c2c1 [Compound 2, N-(2,6-difluorophenyl)-3-(hydroxymethyl)-N,5-dimethyl-1H-indole-2-carboxamide] | 501 to 1000
Cc1ccc2[nH]c(C(=O)N(C)c3ccc(C#N)cc3)c(CO)c2c1 [Compound 3, N-(4-cyanophenyl)-3-(hydroxymethyl)-N,5-dimethyl-1H-indole-2-carboxamide] | ≥ 1000
Cc1ccc2[nH]c(C(=O)N(C)c3ccccn3)c(CO)c2c1 [Compound 4, 3-(hydroxymethyl)-N,5-dimethyl-N-(pyridin-2-yl)-1H-indole-2-carboxamide] | ≥ 1000
Cc1ccc2[nH]c(C(=O)N(C)c3c(Cl)cccc3Cl)c(CO)c2c1 [Compound 5, N-(2,6-dichlorophenyl)-3-(hydroxymethyl)-N,5-dimethyl-1H-indole-2-carboxamide] | 101 to 500
Cc1ccc2[nH]c(C(=O)N(C)c3ccccc3Cl)c(CO)c2c1 [Compound 6, N-(2-chlorophenyl)-3-(hydroxymethyl)-N,5-dimethyl-1H-indole-2-carboxamide] | 101 to 500

Structure (SMILES) | IC50 [nM]
Cc1ccc2[nH]c(C(=O)N(C)c3ccccc3C#N)c(CO)c2c1 [Compound 7, N-(2-cyanophenyl)-3-(hydroxymethyl)-N,5-dimethyl-1H-indole-2-carboxamide] | ≥ 1000
Cc1ccc2[nH]c(C(=O)N(C)c3cccc(C#N)c3)c(CO)c2c1 [Compound 8, N-(3-cyanophenyl)-3-(hydroxymethyl)-N,5-dimethyl-1//-indole-2-carboxamide] | ≥ 1000
Cc1ccc2[nH]c(C(=O)N(C)c3ccc(C#N)cc3Cl)c(CO)c2c1 [Compound 9, N-(2-chloro-4-cyanophenyl)-3-(hydroxymethyl)-N,5-dimethyl-1H-indole-2-carboxamide] | ≥ 1000
Cc1ccc2[nH]c(C(=O)N(C)c3cccc(C(F)(F)F)c3)c(CO)c2c1 [Compound 10, 3-(hydroxymethyl)-N,5-dimethyl-N-(3-(trifluoromethyl)phenyl)-1H-indole-2-carboxamide] | ≥ 1000
Cc1ccc2[nH]c(C(=O)N(C)c3ccc(Cl)c(C(F)(F)F)c3)c(CO)c2c1 [Compound 11, N-(4-chloro-3-(trifluoromethyl)phenyl)-3-(hydroxymethyl)-N,5-dimethyl-1H-indole-2-carboxamide] | ≥ 1000
Cc1ccc2[nH]c(C(=O)N(C)c3ccc(Cl)c(Cl)c3)c(CO)c2c1 [Compound 12] | ≥ 1000
COc1ccccc1N(C)C(=O)c1[nH]c2ccc(C)cc2c1CO [Compound 13, 3-(hydroxymethyl)-N-(2-methoxyphenyl)-N,5-dimethyl-1H-indole-2-carboxamide] | ≥ 1000
Cc1ccc2[nH]c(C(=O)N(C)C3CCCC3)c(CC(N)=O)c2c1 [Compound 16, 3-(2-amino-2-oxoethyl)-N-cyclopentyl-N,5-dimethyl-1H-indole-2-carboxamide] | 501 to 1000
Cc1ccc2c(CO)c(C(=O)N(C)C3CCCC3)[nH]c2c1 [Compound 17, N-cyclopentyl-3-(hydroxymethyl)-N,6-dimethyl-1H-indole-2-carboxamide] | ≥ 1000
Cc1ccc2c(c1)c(CO)c(C(=O)N(C)C1C(C)CCC1C)n2C (stereo not drawn) [Compound 18, N-(2,5-dimethylcyclopentyl)-3-(hydroxymethyl)-N,1,5-trimethyl-1H-indole-2-carboxamide] | ≥ 1000
Cc1ccc2[nH]c(C(=O)N(C)c3cc(F)cc(F)c3)c(CO)c2c1 [Compound 19, N-(3,5-difluorophenyl)-3-(hydroxymethyl)-N,5-dimethyl-1H-indole-2-carboxamide] | ≥ 1000
O=C(c1nc2cc(C(F)(F)F)ccc2[nH]1)N(CCO)c1cnccc1C(F)(F)F [Compound 20, N-(2-hydroxyethyl)-5-(trifluoromethyl)-N-(4-(trifluoromethyl)pyridin-3-yl)-1H-benzo[d]imidazole-2-carboxamide] | ≤ 100
Cc1cccc2[nH]c(C(=O)N(C)C3CCCC3)c(CO)c12 [Compound 21, N-cyclopenty1-3-(hydroxymethyl)-N,4-dimethyl-1H-indole-2-carboxamide] | ≥ 1000
Cc1ccc2[nH]c(C(=O)N(C)c3cccnc3)c(CO)c2c1 [Compound 22, 3-(hydroxymethyl)-N,5-dimethyl-N-(pyridin-3-yl)-1H-indole-2-carboxamide] | ≥ 1000
Cc1ccc2c(CO)c(C(=O)N(C)C3CCCC3)n(CC(N)=O)c2c1 [Compound 23, 1-(2-amino-2-oxoethyl)-N-cyclopentyl-3-(hydroxymethyl)-N,6-dimethyl-1H-indole-2-carboxamide] | ≥ 1000
Cc1ccc2[nH]c(C(=O)N(C)c3cccc(Cl)c3)c(CO)c2c1 [Compound 24, N-(3-chlorophenyl)-3-(hydroxymethyl)-N,5-dimethyl-1H-indole-2-carboxamide] | ≥ 1000
Cc1ccc2[nH]c(C(=O)N(C)c3ccc(Cl)cc3)c(CO)c2c1 [Compound 25, N-(4-chlorophenyl)-3-(hydroxymethyl)-N,5-dimethyl-1H-indole-2-carboxamide] | ≥ 1000
Cc1ccc2[nH]c(C(=O)NC3CCCC3)c(CO)c2c1 [Compound 26, N-cyclopenty1-3-(hydroxymethyl)-5-methyl-1H-indole-2-carboxamide] | ≥ 1000
